Source: publication PMC6753678, “Fueling Open Innovation for Malaria Transmission-Blocking Drugs: Hundreds of Molecules Targeting Early Parasite Mosquito Stages” (Frontiers in Microbiology, 2019)
Read-outs that look alike come from different tables or passages of the source.

What was measured:
[1] = system: 3D7-strain P. falciparum asexual parasites; assay: P. falciparum asexual growth inhibition assay (Pf GIA); type: cell-based, Plasmodium falciparum; conditions: dose response confirmation; read-out: Pf asexual growth inhibition assays IC50
Experimental: The asexual activity of active compounds was tested in dose response with parasite lactate dehydrogenase (LDH) activity used as a readout of parasite viability as described in [Gamo et al. (2010)]. Briefly, 3D7-strain P. falciparum asexual parasites were diluted to 0.25% parasitemia, 2% hematocrit in culture medium composed of RPMI medium with 25 mM HEPES, 2% D-sucrose, 0.3% L-glutamine, 150 μM hypoxanthine plus 5% albumax. 25 μl of parasite inoculum was then dispensed into each well of a 384 well plate containing test compounds and positive (50 μM chloroquine) and negative (DMSO) controls. Plates were incubated for 72 h at 37°C in a 5% CO2, 5%O2, 90% N2 environment before being frozen at −70°C. Plates were then thawed and 70 μl of reaction mix (143 mM sodium L-lactate, 143 mM 3-acetyl pyridine adenine dinucleotide, […] Nitro Blue tetrazolium chloride, […] diaphorase (2.83 U/ml), 0.7% Tween 20, 100 mM Tris–HCl pH 8.0) was added to each well using a Multidrop Combi automated dispenser. Plates were shaken to mix and then absorbance at 650 nm was measured after 10 min incubation at room temperature. Percent inhibition of asexual growth was then calculated with respect to positive and negative controls. Data presented is the mean of three independent biological replicates.

[2] = system: HepG2 cells; assay: HepG2 cytotoxicity assay; conditions: for IC50: read-out: HepG2 cytotoxicity assay IC50, dose response confirmation; for Pb ODA (this manuscript) HepG2 cytoxicity: HepG2 cytotoxicity listed with the Pb ODA data set (this manuscript)
Experimental: Briefly, HepG2 cells were seeded onto compound-treated 384 well plates at a density of 2,500 cells per well in Minimal Essential Medium (MEM) plus 10% fetal bovine serum and 1% non-essential amino acids solution (NEAA). Cells were incubated with test compounds or 50 μM doxorubicin (positive) and DSMO (negative) controls at 37°C for 48 h in a humidified 5% CO2 atmosphere. […] Cell viability was then measured in a fluorescent plate reader and percent inhibition calculated with respect to positive and negative controls.

[3] = system: P. berghei ookinete development; conditions: for % inhibition, Replicate A / % inhibition, Replicate B: primary screen at 1 μM
[4] = unified HepG2 value across the three screens
[5] = read-out: Pb ODA IC50, this manuscript
[6] = read-out: Pb Ookinete development assay IC50, dose response confirmation
[7] = HepG2 values of the three screens unified
[8] = read-out: Pb ODA (this manuscript) IC50, P. berghei ookinete development assay, this manuscript

SMILES | IC50 [1] [nM] | IC50 [2] [nM] | Unified cytotox [2, 4] [µM] | Is compound selective in assay? Pb ODA active? ([3]; 1: YES, 0: NO) | % inhibition, Replicate A [3] [%] | % inhibition, Replicate B [3] [%] | IC50 [3, 5] [nM] | IC50 [3, 6] [nM] | Unified cytotox [2, 7] [µM] | Pb ODA (this manuscript) HepG2 cytoxicity [2] [µM] | Is compound selective in assay? Pb ODA active? [3] | IC50 [3, 8] [nM] | HepG2 cytoxicity (Pb ODA, this manuscript) [2] [µM]
CN1Cc2cc(NC(=O)/C=C/c3ccccc3Cl)ccc2C(C)(C)C1.Cl [TCMDC-139315] | 679 | 20400 | 20.42 | 1 (1: YES) | 114.62 | 130.13 | 560 | 563 | – | – | – | – | –
Cc1[nH]c(C)c(-c2ccc(-c3ccccc3F)nc2)c(=O)c1Br [TCMDC-135926] | 222 | 100000 | – | 1 (1: YES) | 85.66 | 106.09 | 460 | 461 | 100.00 | – | – | – | –
COc1cccc(CC(=O)N2CCC(n3c(C)nc4ccc(F)cc43)CC2)c1 [TCMDC-124792] | 208 | 100000 | 100.00 | 1 (1: YES) | 59.80 | 82.85 | 790 | 794 | – | – | – | – | –
COc1ccc2c(=O)c3ccc(OC)cc3[nH]c2c1 [TCMDC-132054] | 2420 | 100000 | – | – | 107.15 | 103.78 | – | 575 | – | 100.00 | 1 (key: 1: YES; 0: NO) | 580 | –
Cc1[nH]c(C)c(-c2ccc(/C=C/c3ccccn3)cc2)c(=O)c1Cl [TCMDC-135787] | 1260 | 100000 | – | 1 (1: YES) | 50.60 | 51.03 | – | 1050 | 100.00 | – | – | – | –
Cc1[nH]c(C)c(-c2ccc(OCc3cc(F)cc(F)c3)nc2)c(=O)c1Br [TCMDC-135683] | 188 | 25400 | – | 1 (1: YES) | 82.45 | 85.99 | 410 | 409 | 25.41 | – | – | – | 25.41
Br.CC(CCON1C(N)=NC(N)=NC1(C)C)c1ccc(Cl)c(Cl)c1 (stereo not shown) [TCMDC-123922] | < 0.2 | 1 | – | 0 (0: NO) | 47.79 | 55.73 | 5760 | 5760 | 0.001 | – | – | – | 0.001
CC1CN(Cc2ccc(-c3ccc(-c4nc5ccccc5[nH]4)cc3)cc2)CC(C)O1.O=C(O)C(F)(F)F (stereo not shown) [TCMDC-133828] | 1140 | 30200 | – | – | 97.54 | 72.23 | – | 868 | – | 30.20 | 1 (key: 1: YES; 0: NO) | 870 | –
Cc1[nH]cc(Br)c(=O)c1-c1ccc(Oc2ccccc2)cc1 [TCMDC-136196] | 422 | 100000 | – | 1 (1: YES) | 91.11 | 82.53 | 370 | 369 | 100.00 | – | – | – | –
CCOC(=O)c1c(CN2CCCC2)n(-c2ccccc2)c2cc(Br)c(O)cc12 [TCMDC-124122] | 658 | 71600 | 71.61 | 0 (0: NO) | 64.42 | 39.97 | 7760 | 7760 | – | – | – | – | –
Cc1noc(C)c1-c1cccc(CNCc2ccc(-c3ccc(-c4nc5cccc(C)c5[nH]4)cc3)cc2)c1.O=C(O)C(F)(F)F [TCMDC-133061] | 120 | 7940 | 7.94 | 0 (0: NO) | 50.05 | 37.24 | 2660 | 2660 | – | – | – | – | –
COc1c(C)[nH]c(C)c(-c2ccc(Oc3cccc(C(F)(F)F)c3)cc2)c1=O [TCMDC-135253] | 937 | 1300 | – | – | 56.53 | 75.40 | – | 3600 | – | 1.30 | 0 (key: 1: YES; 0: NO) | 3600 | –
Cc1ccc2c(=O)c3cc(C)ccc3[nH]c2c1 [TCMDC-138194] | 176 | 63800 | 63.83 | 1 (1: YES) | 98.56 | 107.67 | 220 | 217 | – | – | – | – | –
CC(=O)Oc1c(Br)c(C)nc(C)c1-c1ccc(Oc2ccc(OC(F)(F)F)cc2)cc1 [TCMDC-137383] | 150 | 9890 | – | – | 98.12 | 79.70 | – | 589 | – | 9.89 | 1 (key: 1: YES; 0: NO) | 590 | –
Cc1cc(=O)[nH]c(-n2nc(C)cc2NC(=O)C2(c3ccc(Cl)cc3)CCCC2)n1 [TCMDC-124943] | 967 | 3310 | – | – | 55.02 | 44.00 | – | 1380 | – | 3.31 | 0 (key: 1: YES; 0: NO) | 1380 | –
Cc1ccc(C2=NNC3(S2)C(=O)N(C)c2ccccc23)cc1 (stereo not shown) [TCMDC-123863] | 3270 | 56900 | 56.89 | 1 (1: YES) | 93.73 | 58.53 | 2440 | 2440 | – | – | – | – | –
CC(C)Cn1ncc2c3c(N)nc(N)nc3ccc21 [TCMDC-137970] | 80 | 110 | – | – | 76.14 | 41.76 | – | 1750 | – | 0.11 | 0 (key: 1: YES; 0: NO) | 1750 | –
COc1ccc(Nc2ncc(Cl)c(Nc3cccnc3C(N)=O)n2)cc1N1CCN(C)CC1.Cl [TCMDC-134163] | 169 | 11200 | – | – | 91.07 | 92.91 | – | 380 | – | 11.22 | 1 (key: 1: YES; 0: NO) | – | –
CCCCCCCc1cc(=O)c2ccccc2[nH]1 [TCMDC-132026] | 458 | 20600 | – | – | 86.88 | 74.93 | – | 1140 | – | 20.65 | 1 (key: 1: YES; 0: NO) | 1140 | –
Br.CCCc1cc(C)ccc1OCCCON1C(N)=NC(N)=NC1(C)C [TCMDC-131320] | < 0.2 | 1.7 | – | 0 (0: NO) | 73.15 | 59.20 | 5110 | 5110 | 0.0017 | – | – | – | 0.0017
COc1c(F)ccc2ncc(Cl)c(CCN3CCC(NCc4ccc5c(n4)NC(=O)CS5)CC3)c12.Cl [TCMDC-141955] | 1190 | 24000 | – | 1 (1: YES) | 54.74 | 63.10 | 1900 | 1900 | 23.99 | – | – | – | 23.99
COc1ccc2nccc([C@@H](O)CN3CCC(NCc4cc5c(F)ccc(F)c5[nH]4)CC3)c2c1.O=C(O)C(=O)O [TCMDC-140739] | 98 | 14800 | – | 0 (0: NO) | 18.82 | 50.21 | 2790 | 2790 | 14.79 | – | – | – | 14.79
CCc1cc2c(Sc3nc4ccccc4[nH]3)ncnc2s1 [TCMDC-124553] | 1760 | 100000 | 100.00 | 1 (1: YES) | 56.26 | 84.90 | 1000 | 998 | – | – | – | – | –
